The results in this text go back to patent publication US20240246942A1, “KINASE INHIBITORS FOR THE TREATMENT OF NEURODEGENERATIVE DISEASES” (priority 2020, published 2024).

Common to all, as to assay: biochemical
Experiment [1] has as its target T1, panel of 374 wild-type kinases (Homo sapiens, UniProt Q86UX6).
T1 construct: purchased Reaction Biology Corporation
The note with it: read-out: % Enzyme Activity (relative to DMSO controls), kinase STK32C/YANK3.

In experiment [2] the target is T2, panel of 374 wild-type kinases (Homo sapiens, UniProt Q12866).
T2 construct: purchased Reaction Biology Corporation
T2 sequence (Q12866 21-999): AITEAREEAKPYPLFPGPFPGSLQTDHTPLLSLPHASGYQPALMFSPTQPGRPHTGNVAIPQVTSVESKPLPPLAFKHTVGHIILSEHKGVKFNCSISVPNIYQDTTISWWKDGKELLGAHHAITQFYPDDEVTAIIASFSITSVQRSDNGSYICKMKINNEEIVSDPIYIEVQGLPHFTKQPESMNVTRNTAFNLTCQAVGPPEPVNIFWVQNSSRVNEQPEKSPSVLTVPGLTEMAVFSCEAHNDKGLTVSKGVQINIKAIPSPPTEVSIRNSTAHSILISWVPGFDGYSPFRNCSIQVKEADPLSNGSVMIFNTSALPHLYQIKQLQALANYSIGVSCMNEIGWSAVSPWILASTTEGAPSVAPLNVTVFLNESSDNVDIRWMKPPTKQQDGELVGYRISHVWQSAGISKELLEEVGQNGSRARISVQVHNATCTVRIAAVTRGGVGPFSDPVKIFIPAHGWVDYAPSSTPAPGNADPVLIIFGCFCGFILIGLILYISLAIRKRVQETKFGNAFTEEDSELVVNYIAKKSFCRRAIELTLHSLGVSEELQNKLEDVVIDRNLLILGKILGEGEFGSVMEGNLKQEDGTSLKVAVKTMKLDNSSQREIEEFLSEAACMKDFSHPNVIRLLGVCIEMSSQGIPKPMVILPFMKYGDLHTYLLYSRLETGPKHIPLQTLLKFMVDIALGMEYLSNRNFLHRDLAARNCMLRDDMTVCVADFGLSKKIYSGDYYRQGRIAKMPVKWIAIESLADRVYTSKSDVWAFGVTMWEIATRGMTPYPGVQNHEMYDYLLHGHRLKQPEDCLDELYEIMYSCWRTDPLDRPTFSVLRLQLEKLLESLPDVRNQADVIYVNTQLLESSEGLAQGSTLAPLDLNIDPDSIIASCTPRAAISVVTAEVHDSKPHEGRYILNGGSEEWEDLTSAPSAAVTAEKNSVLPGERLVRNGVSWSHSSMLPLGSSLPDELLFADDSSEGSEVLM
The note with it: read-out: % Enzyme Activity (relative to DMSO controls), c-MER.

For experiment [3], the target named is T3, panel of 374 wild-type kinases (Homo sapiens, UniProt Q16512).
T3 construct: purchased Reaction Biology Corporation
The note with it: read-out: % Enzyme Activity (relative to DMSO controls), kinase PKN1/PRK1.

In experiment [4] the target is T4, panel of 374 wild-type kinases (Homo sapiens, UniProt P25098).
T4 construct: purchased Reaction Biology Corporation
T4 sequence (P25098 1-689): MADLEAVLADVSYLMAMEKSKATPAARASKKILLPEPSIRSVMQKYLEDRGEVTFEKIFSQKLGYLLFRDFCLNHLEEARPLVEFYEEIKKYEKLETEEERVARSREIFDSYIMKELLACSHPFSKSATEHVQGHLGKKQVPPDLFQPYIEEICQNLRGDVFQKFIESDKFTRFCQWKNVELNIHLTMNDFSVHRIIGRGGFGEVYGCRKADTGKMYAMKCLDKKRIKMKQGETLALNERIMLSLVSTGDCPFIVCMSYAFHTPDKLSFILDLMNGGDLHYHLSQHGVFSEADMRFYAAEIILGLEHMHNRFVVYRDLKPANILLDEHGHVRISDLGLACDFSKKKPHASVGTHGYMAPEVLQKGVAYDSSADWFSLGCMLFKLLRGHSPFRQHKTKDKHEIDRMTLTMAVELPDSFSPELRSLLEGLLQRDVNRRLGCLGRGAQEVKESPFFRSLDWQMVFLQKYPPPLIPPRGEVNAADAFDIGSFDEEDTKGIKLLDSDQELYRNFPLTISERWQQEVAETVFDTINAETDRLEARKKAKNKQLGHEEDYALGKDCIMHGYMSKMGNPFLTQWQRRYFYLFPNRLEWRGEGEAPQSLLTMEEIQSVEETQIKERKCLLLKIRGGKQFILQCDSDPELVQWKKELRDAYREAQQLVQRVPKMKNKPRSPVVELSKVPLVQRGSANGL
The note with it: read-out: % Enzyme Activity (relative to DMSO controls), GRK2.

The target of experiment [5] is T5, panel of 374 wild-type kinases (Homo sapiens, UniProt Q9H2K8).
T5 construct: purchased Reaction Biology Corporation
T5 sequence (Q9H2K8 1-898): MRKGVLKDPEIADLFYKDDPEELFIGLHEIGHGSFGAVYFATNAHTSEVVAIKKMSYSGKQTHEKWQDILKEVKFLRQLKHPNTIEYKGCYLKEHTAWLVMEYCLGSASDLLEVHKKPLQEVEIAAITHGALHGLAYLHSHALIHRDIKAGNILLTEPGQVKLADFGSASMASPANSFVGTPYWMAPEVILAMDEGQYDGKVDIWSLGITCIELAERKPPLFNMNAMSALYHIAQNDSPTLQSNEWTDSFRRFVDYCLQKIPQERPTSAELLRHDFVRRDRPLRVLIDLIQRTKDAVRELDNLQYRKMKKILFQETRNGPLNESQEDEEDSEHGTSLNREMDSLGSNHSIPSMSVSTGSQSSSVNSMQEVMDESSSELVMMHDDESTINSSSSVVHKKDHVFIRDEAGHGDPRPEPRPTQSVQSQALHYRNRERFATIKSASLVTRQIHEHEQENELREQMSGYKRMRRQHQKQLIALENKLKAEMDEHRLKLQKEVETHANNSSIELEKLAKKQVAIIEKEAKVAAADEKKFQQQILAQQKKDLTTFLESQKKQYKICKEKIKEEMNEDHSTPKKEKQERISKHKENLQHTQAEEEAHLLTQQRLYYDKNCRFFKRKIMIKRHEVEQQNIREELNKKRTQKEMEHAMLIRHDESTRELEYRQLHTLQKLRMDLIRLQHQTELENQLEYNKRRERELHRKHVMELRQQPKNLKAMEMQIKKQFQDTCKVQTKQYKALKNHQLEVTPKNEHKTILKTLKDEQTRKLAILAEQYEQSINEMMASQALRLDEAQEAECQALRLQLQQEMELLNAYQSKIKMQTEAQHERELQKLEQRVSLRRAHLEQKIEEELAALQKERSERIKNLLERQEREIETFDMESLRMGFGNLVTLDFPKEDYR
Particulars: read-out: % Enzyme Activity (relative to DMSO controls), kinase TAOK3/JIK.

T3 sequence (Q16512 whole entry): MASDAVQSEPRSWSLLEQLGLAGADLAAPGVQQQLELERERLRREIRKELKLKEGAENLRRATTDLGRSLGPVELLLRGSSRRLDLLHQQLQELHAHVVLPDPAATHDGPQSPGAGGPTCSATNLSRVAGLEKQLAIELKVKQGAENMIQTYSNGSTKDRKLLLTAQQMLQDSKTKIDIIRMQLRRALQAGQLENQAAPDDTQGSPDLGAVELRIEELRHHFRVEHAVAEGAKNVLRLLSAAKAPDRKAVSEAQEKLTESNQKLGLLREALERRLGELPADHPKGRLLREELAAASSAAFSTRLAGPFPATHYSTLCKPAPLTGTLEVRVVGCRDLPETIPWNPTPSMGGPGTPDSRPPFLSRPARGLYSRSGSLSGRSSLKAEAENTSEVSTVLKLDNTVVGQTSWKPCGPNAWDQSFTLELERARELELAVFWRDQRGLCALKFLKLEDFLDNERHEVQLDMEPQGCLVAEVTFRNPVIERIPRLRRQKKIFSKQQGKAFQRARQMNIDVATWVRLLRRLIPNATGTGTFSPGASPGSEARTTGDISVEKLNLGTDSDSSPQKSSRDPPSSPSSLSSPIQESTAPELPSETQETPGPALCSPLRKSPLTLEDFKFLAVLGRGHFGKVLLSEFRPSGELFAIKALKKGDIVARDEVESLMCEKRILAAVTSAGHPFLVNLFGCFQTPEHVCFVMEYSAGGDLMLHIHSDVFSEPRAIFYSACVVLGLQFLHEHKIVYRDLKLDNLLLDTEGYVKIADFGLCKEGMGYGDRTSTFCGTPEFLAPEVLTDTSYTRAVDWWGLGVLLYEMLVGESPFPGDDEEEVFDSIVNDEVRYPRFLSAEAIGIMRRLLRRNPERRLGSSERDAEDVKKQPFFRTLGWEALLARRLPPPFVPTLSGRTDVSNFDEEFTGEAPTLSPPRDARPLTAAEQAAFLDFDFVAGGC
T1 sequence (Q86UX6 whole entry): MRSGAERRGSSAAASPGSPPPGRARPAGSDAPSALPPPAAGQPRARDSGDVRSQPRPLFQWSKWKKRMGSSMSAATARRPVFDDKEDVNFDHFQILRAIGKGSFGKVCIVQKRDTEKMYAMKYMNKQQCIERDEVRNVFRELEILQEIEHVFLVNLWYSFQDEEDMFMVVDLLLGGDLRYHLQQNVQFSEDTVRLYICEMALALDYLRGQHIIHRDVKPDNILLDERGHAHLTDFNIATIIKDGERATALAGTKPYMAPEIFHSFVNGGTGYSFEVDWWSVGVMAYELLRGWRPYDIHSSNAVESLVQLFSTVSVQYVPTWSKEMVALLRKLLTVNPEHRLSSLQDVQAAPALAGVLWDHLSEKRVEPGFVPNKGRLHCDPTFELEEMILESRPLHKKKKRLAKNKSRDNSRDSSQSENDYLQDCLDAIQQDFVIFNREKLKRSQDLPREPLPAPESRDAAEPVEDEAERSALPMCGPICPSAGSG

Consider `O=C(Nc1cnn(-c2csc(C(=O)NC3COC3)c2)c1)Nc1ccccc1Cl` [Compound 17, 4-(4-(3-(2-chlorophenyl)ureido)-1H-pyrazol-1-yl)-N-(oxetan-3-yl)thiophene-2-carboxamide], for which the remaining activity at 5 µM in experiment [1] was found to be 113%; in experiment [2], 92.7%; in experiment [3] it was 110%; in experiment [4], 96.1%; in experiment [5] it was 103%.

For the compound `O=C(Nc1cnn(-c2csc(C(=O)NC3COC3)c2)c1)Nc1c(F)cccc1Cl` [Compound 25, 4-(4-(3-(2-chloro-6-fluorophenyl)ureido)-1H-pyrazol-1-yl)-N-(oxetan-3-yl)thiophene-2-carboxamide], the remaining activity at 5 µM stood at 90.7% in experiment [1]; 77.1% in experiment [2]; 96.5% in experiment [3]; 106% in experiment [4]; 90.2% in experiment [5].

With `Cc1sc(C(=O)NC2COC2)cc1-n1cc(NC(=O)Nc2c(F)cccc2Cl)cn1` [Compound 27, 4-(4-(3-(2-chloro-6-fluorophenyl)ureido)-1H-pyrazol-1-yl)-5-methyl-N-(oxetan-3-yl)thiophene-2-carboxamide], the remaining activity at 10 µM was 112% in experiment [1] (10 uM); 103% in experiment [2] (10 uM); 76.8% in experiment [3] (10 uM); 106% in experiment [4] (10 uM); 98% in experiment [5] (10 uM).
